Experimental data taken from US20060089318A1, “Inhibitors of adp-ribosyl transferases, cyclases, and hydrolases” (priority 2002, published 2006).
Where two headings read alike, the source gives them in different places. Blank lines part the entries; values can stand above or below the compound they belong to.

Tests used:
human CD38 [1] = target: T1, human CD38 (Homo sapiens, UniProt P28907); experiment: CD38-catalyzed base-exchange reaction of 2 with nicotinamide to form 1 (HPLC); format: biochemical; parameters: The soluble domain of human CD38 catalyzes the conversion of NAD^+ to cyclic-ADP-ribose
T1 sequence (P28907 43-300 limits assumed): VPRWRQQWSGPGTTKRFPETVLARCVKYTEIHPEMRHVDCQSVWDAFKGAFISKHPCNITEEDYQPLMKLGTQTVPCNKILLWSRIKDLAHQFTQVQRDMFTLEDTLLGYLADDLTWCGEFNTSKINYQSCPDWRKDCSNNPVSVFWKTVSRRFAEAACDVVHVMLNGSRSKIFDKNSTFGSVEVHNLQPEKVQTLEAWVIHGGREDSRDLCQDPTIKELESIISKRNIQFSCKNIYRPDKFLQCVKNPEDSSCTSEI
Method: Base-exchange reaction. […] These reactions were run separately in autosampler tubes held at 19° C. in a temperature regulated autosampler and assayed by multiinjection HPLC using 5 mM K2PO4H pH 5.0 and 2.5% MeOH as eluant. The quantity of 2 reacted and the quantity of 1 formed versus time was determined by integrations of the peaks for 1 and 2 with comparison to standards.

human CD38 [2] = target: T1, human CD38; details: read-out: Apparent Km for nicotinamide rescue of CD38 activity; CD38 preinhibited by 2
Method: 10 mL CD38 (1 μM) in K2PO4H was incubated with 2 (10 μM) for 30 minutes at room temperature and subsequently placed on ice. […] To a two syringe Applied Photophysics spectrophotometer in fluorescence mode was added inhibited enzyme to one syringe and NGD^+ solution to the other. Fluorescence was used to monitor cGDPR formation and the total fluorescence curves fit using the activity recovery equation. F(t)=vt+(b−v)(1−exp(−kt))/k+F0 where k is the observed rate constant, b is the initial rate, v is the final rate and F0 is the initial absorbance.
A stopped flow, two syringe fitted spectrophotometer was used to perform the experiments. The fluorescence of cGDPR was measured as a function of time to generate curves that contain an exponential and a linear phase prior to substrate exhaustion. These curves were fit to the equation Ft=vft+(vi−vf)(1−exp(−kt))/k+F0 as previously defined.

CD38 [3] = target: T2, CD38 (Homo sapiens, UniProt P28907); details: read-out: Apparent Km for nicotinamide rescue; CD38 inactivated by ara-F-NMN+; cited from earlier work
T2 sequence (P28907 45-300 limits assumed): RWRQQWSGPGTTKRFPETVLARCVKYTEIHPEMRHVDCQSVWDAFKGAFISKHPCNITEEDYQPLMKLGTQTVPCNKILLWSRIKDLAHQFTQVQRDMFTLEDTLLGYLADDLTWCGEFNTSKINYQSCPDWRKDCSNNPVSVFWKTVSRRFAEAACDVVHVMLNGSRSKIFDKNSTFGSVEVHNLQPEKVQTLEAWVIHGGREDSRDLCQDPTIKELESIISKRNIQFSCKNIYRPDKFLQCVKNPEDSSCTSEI

human CD38 [4] = target: T1, human CD38; experiment: Competitive and slow-onset inhibition of CD38-catalyzed conversion of NGD+ to cGDPR (295 nm absorbance); format: biochemical; parameters: The soluble domain of human CD38 catalyzes the conversion of NAD^+ to cyclic-ADP-ribose; details: for Inhibition of CD38 conversion of NGD+ to cGDPR: even at millimolar concentrations of compound; for Ki: 19° C.
Method: Determination of Ki and kon by competitive method. To 1 mL solutions of 50 mM potassium phosphate pH 7.2 and 100 μM NGD^+ containing, 50, 25, 12.5, and 6.25 and 0 μM inhibitor 1 was added 2 μL of 7 μM CD38. Reaction progress upon initiation by enzyme addition was monitored by measurement of […] absorbance. The initial slopes were used to determine the Ki value, and all points of the experiment were fit to the equation A(t)=vt+(b−v)(1−exp(−kt))/k+A0 where k is the observed rate constant, b is the initial rate, v is the final rate and A0 is the initial absorbance was used to evaluate kon.
Determination of Competitive Inhibition by Initial Rates: The inhibitors 1-3 were evaluated for inhibition of CD38 enzymatic activity using a spectrophotometric assay. CD38 catalyzes the conversion of NGD^+ to cyclic-GDP ribose (cGDPR, Scheme 4) and product formation can be monitored by 295 nm absorbance measurement. […] A similar reaction containing 40 μM NGD^+ at several concentrations of 2 was also performed (FIG. 3).
Slow Phase Inhibition. […] This slow phase was not due to substrate depletion and was attributable to a kinetic process leading to progressive inhibition of the enzyme. The “slow-onset” absorbance curves could be fit using the equation At=vit+(vi−vf)(1−exp(−kt))/k+A0 where At is absorbance, vi is initial velocity, vf is final velocity, t is time in s, k is the rate of the slow onset process and A0 is absorbance of the sample at initial time. These fits are shown by the solid lines in FIG. 2 and FIG. 3. The rate constant for the slow phase could be obtained from the average value of k determined from the separate fits. The value of k for 1 was determined to be 0.0042±0.001 s^−1 and the value of k for 2 was determined to be 0.0083±0.002 s^−1. The parameter k is defined as kon in Scheme 5. [drawing 22]
Calculation of Total Inhibition. […] This equation is valid for slow onset behavior inhibitors and also mechanistic based inactivators of enzymes where a slow recovery of the enzyme from chemical inactivation is present.

CD38 [5] = target: T2, CD38; details: comparison values for substrates; read-out: Km of substrate for CD38; cited from earlier work
CD38 [6] = details: literature values (Sauve et al., 2000; Muller-Steffner et al., 1992); cited from earlier work
human CD38 [7] = target: T1, human CD38; experiment: Off-rate measurement: recovery of inhibited CD38 in excess NGD+; format: biochemical; parameters: The soluble domain of human CD38 catalyzes the conversion of NAD^+ to cyclic-ADP-ribose; details: 19° C.
Method: Off-Rate Measurement. 500 nM CD38 in 50 mM potassium phosphate pH 7.2 was incubated with 15 μM inhibitor for 30 min at room temperature. 5 μL of the enzyme inhibitor solution was added to a cuvette containing 1 mL reaction of 50 mM potassium phosphate pH 7.5 containing 300 μM NGD^+ pre-chilled to 19° C. Production of […] was determined by monitoring […] absorbance. The absorbance was fit to the equation A(t)=vt+(b−v) (1−exp(−kt))k+A0 where A(t) is the absorbance, k is the rate constant of recovery, b is the initial rate, v is the final rate and A0 is the initial absorbance. A control lacking inhibitor but in all other respects identical was also run.
Recovery from Inhibition. […] The solution 295 nm absorbance is monitored spectrophotometrically to assay conversion of NGD^+ to cGDPR as a consequence of regain of CD38 catlytic activity. […] The absorbance curves with the same equation used for slow-onset: At=vit+(vi−vf)(1−exp(−kt))/k+A0 where At is absorbance, vi is initial velocity, vf is final velocity, t is time in s, k is the rate of the recovery rate constant and A0 is the absorbance of the sample at initial time. The rate constant for the recovery phase was obtained from the average value of k determined from the separate fits. The value of koff for 1 was determined to be 1.5×10^−5 s^−1 and for 2 was determined to be 2.5×10^−5 s^−1.

[8] = Solution hydrolysis (chemical stability); format: physicochemical
Description: Without being bound to any particular mechanism, it is believed that the electron-contributing moiety on A stabilizes the compounds of the invention such that they are less susceptible to hydrolysis from the rest of the compound. For example, the compound β-1′-5-methyl-nicotinamide-2′-deoxyribose (established as an effective inhibitor of CD38 in Example 1) was compared with β-1′-nicotinamide-2′-deoxyribose in its ability to resist solution hydrolysis. […] This difference in chemical stability means that β-1′-nicotinamide-2′-deoxyribose is 50% depleted from solution in 2 hours, whereas β-1′-5-methyl-nicotinamide-2′-deoxyribose is not hydrolyzed by 50% until 12 hours. This improved chemical stability improves the value of the compound, since it is available for action for longer periods of time in biological systems due to resistance to hydrolytic breakdown.

human CD38 [9] = target: T1, human CD38; experiment: Radiochemical measurement of inhibitor binding (labeling of CD38 by [2'-3H] inhibitor, gel filtration and scintillation counting); parameters: The soluble domain of human CD38 catalyzes the conversion of NAD^+ to cyclic-ADP-ribose; details: 25° C.; 9 μM inhibitor, 1.2 μM CD38 monomer
Method: Radiochemical measurement of inhibitor binding. […] Inhibitor at 9 μM with specific radioactivity of 866 cpm/nmol, was incubated with 1.2 μM CD38 (monomer) in 1 mL 50 mM potassium phosphate (pH 7.5). The reactions were started by enzyme addition and quenched by freezing with a dry ice/acetone bath at 30, 60 90, 120, 250, 500, and 1000 s. Cooled (0° C.) gel filtration columns were used to separate protein with cooled (0° C.) 10 mM potassium phosphate as eluant. The frozen fraction were quickly thawed, applied to these columns and fractions collected in 1 mL volumes over the course of several minutes. Scintillation fluid (9 mL) was then added to each 1 mL fraction and samples counted. […] The observed radioactivity was fit using the equation A(t)=A0(1−exp(−kt))+B. where A0 is activity at reaction completion, k is the observed pseudo-first order rate constant and B is the activity of the blank.
Titration of Enzyme with [2′-^3H]Inhibitor. CD38 inactivation was accomplished using a radiolabeled inhibitor to assess inhibitor interactions with the enzyme independent from inhibition of the catalytic activity. This method allows the determination of the stoichiometry of covalent labeling, and detects cooperativity at multiple sites. […] (FIG. 8) within reasonable agreement with the rate constant for inactivation in kinetic assays of inhibition (kon=0.0042 s^−1 at 19° C.). […]

[10] = 100 μM NGD+ for 1, 40 μM NGD+ for 2, 50 mM potassium phosphate pH 7.2, read-out: Ki (competitive inhibition, from initial rates)
[11] = calculated from the kinetic parameters, read-out: Ki(total) = (koff/kon)*Ki, effective dissociation constant
[12] = 10 mM potassium phosphate, pH 6.5, 25° C.

Km (human CD38 [1]; read-out: Km of nicotinamide for steady state base exchange, 75 μM 2, 1 μM CD38, 19° C.): 920 µM
Km (human CD38 [2]): 2400 µM
Structure (SMILES): NC(=O)c1cccnc1 [nicotinamide]
Km (CD38 [3]): 17000 µM

Inhibition of CD38 conversion of NGD+ to cGDPR (human CD38 [4]): did not inhibit
Structure (SMILES): OC[C@H]1O[C@@H]([n+]2ccccc2)C[C@@H]1O [inhibitor 3, β-pyridyl-deoxyriboside]

Structure (SMILES): NC(=O)c1ccc[n+]([C@@H]2O[C@H](COP(=O)([O-])OP(=O)(O)OC[C@H]3O[C@@H](n4cnc5c(=O)[nH]c(N)nc54)[C@H](O)[C@@H]3O)[C@@H](O)[C@H]2O)c1 [NGD^+, nicotiramide guanine dinucleotide]
Km (CD38 [5]): 2.5 µM

Structure (SMILES): NC(=O)c1ccc[n+]([C@@H]2O[C@H](COP(=O)([O-])OP(=O)(O)OC[C@H]3O[C@@H](n4cnc5c(N)ncnc54)[C@H](O)[C@@H]3O)[C@@H](O)[C@H]2O)c1 [NAD^+, nicotinamide adenine dinucleotide]
Km (CD38 [5]): 15 µM

Structure (SMILES): NC(=O)c1ccc[n+]([C@@H]2O[C@H](COP(=O)(O)O)C(O)C2F)c1 (stereo partly shown) [ara-F-NMN^+]
Ki (CD38 [6]): 0.061 µM

Structure (SMILES): Cc1cc(C(N)=O)c[n+](C2CC(O)C(CO)O2)c1 (single isomer, unassigned) [α isomer of 2]
Inhibition of CD38 conversion of NGD+ to cGDPR (human CD38 [4]): did not inhibit

Structure (SMILES): Cc1cc(C(N)=O)c[n+]([C@H]2C[C@H](O)[C@@H](CO)O2)c1 [inhibitor 2, β-5-methyl-nicotinamide-2′-deoxyriboside]
Ki (human CD38 [4]; [10]): 4 ± 0.5 µM
Ki (human CD38 [4]; [11]): 0.0125 µM
kcat of base exchange (2 to 1) (human CD38 [1]; 75 μM 2, 1 μM CD38, nicotinamide 0-40 mM, 19° C.): 0.007 s⁻¹
koff (rate constant of recovery from inhibition) (human CD38 [7]): ~2e-05 s⁻¹
Decrease in the rate of hydrolysis versus β-1′-nicotinamide-2′-deoxyribose (factor) [8, 12]: 6
Rate constant for solution hydrolysis [8, 12]: 1.5e-05 s⁻¹
Time to 50% depletion from solution by hydrolysis [8]: 12 h

Structure (SMILES): NC(=O)c1ccc[n+]([C@@H]2O[C@H](COP(=O)(O)O)[C@@H](O)[C@H]2O)c1 [NMN^+]
Km (CD38 [5]): 150 µM

Structure (SMILES): [3H]C1[C@H]([n+]2cccc(C(N)=O)c2)O[C@H](CO)[C@H]1O (stereo partly shown) [[2-^3H]-1, [2′-^3H]Nicotinamide deoxyriboside]
Rate constant of radiochemical labeling of CD38 (kchem) (human CD38 [9]): 0.01 s⁻¹

Structure (SMILES): NC(=O)c1ccc[n+]([C@H]2C[C@H](O)[C@@H](CO)O2)c1 [inhibitor 1, β-nicotinamide-2′-deoxyriboside]
Ki (human CD38 [4]; [10]): 1.2 µM
Ki (human CD38 [4]; [11]): 0.0045 µM
koff (rate constant of recovery from inhibition) (human CD38 [7]): ~2e-05 s⁻¹
Rate constant of radiochemical labeling of CD38 (kchem) (human CD38 [9]): 0.01 s⁻¹
Rate constant for solution hydrolysis [8, 12]: 9.6e-05 s⁻¹
Time to 50% depletion from solution by hydrolysis [8]: 2 h

Structure (SMILES): NC(=O)c1ccc[n+](C2CC(O)C(CO)O2)c1 (single isomer, unassigned) [α isomer of 1]
Inhibition of CD38 conversion of NGD+ to cGDPR (human CD38 [4]): did not inhibit

Structure (SMILES): NC(=O)c1ccc[n+]([C@@H]2O[C@H](COP(=O)([O-])OP(=O)(O)OC[C@H]3O[C@@H](n4cnc5c(N)ncnc54)[C@H](O)[C@@H]3O)[C@@H](O)[C@H]2F)c1 [ara-F-NAD^+]
Ki (CD38 [6]): 0.169 µM
